Results from patent publication US12024552B2 (priority 2012, dated 2024).
Marks after values point to notes of the source that are not given here.

What was measured:
[1] = system: Influenza A/Vietnam/1203/2004 (H5N1) virus; parameters: species or system BALB/c mice; conditions: mouse, in vivo
[2] = system: influenza H1N1 and Streptococcus pneumoniae; parameters: species or system mice; conditions: mouse, in vivo

SMILES | Hazard Ratio (95% CI) [1] | Live/Total [1] | Mean Day of Death ± SD [1] | Median Survival [1] | survival, H5N1 [1] [%] | rescue from death [2]
CCOC(=O)C1=C[C@@H](OC(CC)CC)[C@H](NC(C)=O)[C@@H](N)C1 [Oseltamivir, oseltamivir] | 4.8 (1.6-14.3) | 4/7* | 11.3 ± 0.6 | Undefined | 60 | 
NC(=O)c1ncn([C@@H]2O[C@H](CO)[C@@H](O)[C@H]2O)n1 [Ribavirin, ribavirin] |  |  |  |  |  | failed to rescue animals from death
